Experimental data as given in PubChem BioAssay (NCI).
Values joined by “and” are separate entries in the source; they are usually repeats but may differ in a detail not shown here. Equal values may be shown once.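 Protocol summary: plate cells (96-well), add compound at 5 concentrations, incubate 48 h, interpolate endpoints linearly. GI50 marks 50% less growth. TGI denotes the concentration required for complete inhibition of growth.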

Key:
Test in all cases: DTP human tumour cell line panel, 48 h
[1] = tested on: K-562 leukemia
[2] = tested on: UACC-257 melanoma
[3] = tested on: HCT-116 colon
[4] = tested on: UACC-62 melanoma
[5] = tested on: SR leukemia
[6] = tested on: NCI-H522 lung
[7] = tested on: SF-295 CNS
[8] = tested on: SK-OV-3 ovarian
[9] = tested on: SN12C renal
[10] = tested on: U251 CNS
[11] = tested on: PC-3 prostate

Row | Structure (SMILES) | TGI [1] | TGI [2] | TGI [3] | TGI [4] | TGI [5] | GI50 [6] | TGI [6] | TGI [7] | TGI [8] | GI50 [9] | TGI [9] | TGI [10] | TGI [11]
1 | CCOC(=O)N1CCC(N[C@@H]2c3cc4c(cc3C(c3cc(OC)c(O)c(OC)c3)C3C(=O)OC[C@@H]32)OCO4)CC1 (stereo not given in full) | 22.4 µM and > 25 µM | 36.3 µM and > 25 µM | 22.3 µM and 11 µM | 2.87 µM and 5.37 µM | 3.21 µM and > 25 µM | 1.41 µM and 3.08 µM | 7.72 µM and 7.21 µM | 2.53 µM and 2.42 µM | 4.6 µM and 4.45 µM | 1.21 µM and 0.366 µM | 2.93 µM and 1.34 µM | 6.51 µM and 8.32 µM | 
2 | COc1ccc(C2c3cn[nH]c3CC3CCCCC32)cc1 (stereo not given) | 98.6 µM | 45.9 µM | 31.7 µM | 24.6 µM | 57.1 µM |  | 36.3 µM |  |  |  | 33.2 µM | 28.9 µM | 29.8 µM
3 | CC(c1ccccc1)N1CCN(C(C)c2ccccc2)CC1 (stereo not given) | > 100 µM | > 100 µM | > 100 µM | > 100 µM | > 100 µM |  | > 100 µM | > 100 µM |  |  | > 100 µM | > 100 µM | > 100 µM
4 | BrC(=C(c1ccc(OC2CCCCO2)cc1)c1ccc(OC2CCCCO2)cc1)c1ccccc1 (stereo not given) | > 100 µM | > 100 µM | > 100 µM | > 100 µM | > 100 µM |  |  | > 100 µM | > 100 µM |  | > 100 µM | > 100 µM | > 100 µM
5 | O=C1OCC/C1=N/O | > 100 µM | > 100 µM | > 100 µM | > 100 µM | > 100 µM |  | > 100 µM | > 100 µM | > 100 µM |  | > 100 µM | > 100 µM | 
6 | COc1ccc(C2OC(c3ccncc3)=NN2C)cc1F (stereo not given) | > 100 µM | > 100 µM | > 100 µM | > 100 µM |  |  | > 100 µM | > 100 µM | > 100 µM |  | > 100 µM | > 100 µM | > 100 µM
7 | CCCCCC#CCOC(=O)C(=[N+]=[N-])P(=O)(c1ccccc1)c1ccccc1 | > 10 µM | > 10 µM | > 10 µM | > 10 µM | > 10 µM |  |  | > 10 µM | > 10 µM |  | > 10 µM | > 10 µM | > 10 µM
8 | C=CCn1c(=O)c(C(=O)Nc2nc(C34CC5CC(CC(C5)C3)C4)cs2)c(O)c2ccccc21 | > 100 µM | 22.4 µM | > 100 µM |  | > 100 µM |  | > 100 µM | 40.7 µM |  |  | > 100 µM | > 100 µM | > 100 µM
9 | COc1cc(OC)cc(C(=O)CC(=O)c2cc(OC)cc(OC)c2)c1 | > 100 µM | > 100 µM | > 100 µM | > 100 µM | > 100 µM |  |  | > 100 µM | > 100 µM |  | > 100 µM | > 100 µM | > 100 µM
10 | CC(O)CNC(=O)C(C)Oc1ccc(OCC2CCCCC2)cc1 (stereo not given) | > 100 µM | > 100 µM | > 100 µM | > 100 µM |  |  | > 100 µM | > 100 µM | > 100 µM |  | > 100 µM | > 100 µM | 
11 | O=P(O)(O)C(N=C(Nc1ccccc1)Nc1ccccc1)P(=O)(O)O |  | > 100 µM | > 100 µM | > 100 µM |  |  | > 100 µM | > 100 µM | > 100 µM |  |  |  | > 100 µM
12 | C=C1CC(C#N)(C#N)[C@H]2C3CCCC3C[C@@H]12 (stereo not given in full) (tested in a mixture with another compound) | 82.8 µM |  | 19.4 µM | > 100 µM | 53.6 µM |  |  | 39.4 µM | > 100 µM |  | 30.5 µM | 40.4 µM | 97.4 µM
13 | O=C1c2ccccc2C(=O)N1n1c(Cc2ccc([N+](=O)[O-])cc2)n[nH]c1=O | > 100 µM | > 100 µM | > 100 µM | 89.1 µM | > 100 µM |  | > 100 µM | > 100 µM |  |  | > 100 µM | > 100 µM | > 100 µM
14 | COc1cc(OC)c2c(=O)cc(-c3ccc(OC)c(OC)c3OC)oc2c1 | > 100 µM | > 100 µM | > 100 µM | > 100 µM |  |  | > 100 µM | > 100 µM | > 100 µM |  | > 100 µM |  | 
15 | CC(C)(C)[Si](C)(C)OCC1OC(n2ccc(=O)[nH]c2=O)C(O[Si](C)(C)C(C)(C)C)/C1=C/C#N (stereo not given) |  | > 100 µM | > 53.2 µM | 2.75 µM | > 100 µM |  | > 100 µM | > 81.4 µM | > 100 µM |  | 32.5 µM | > 44 µM | > 100 µM
16 | O=C1NC(N2CCOCC2)=N/C1=C\c1ccco1 |  | > 100 µM | > 100 µM | > 100 µM | > 100 µM |  | > 100 µM | > 100 µM | > 100 µM |  | > 100 µM | > 100 µM | > 100 µM
17 | COc1ccc(CCN(C)C2CCC(C#N)(c3ccc(OC)c(OC)c3)CC2)cc1OC (stereo not given) | > 100 µM | > 100 µM | > 100 µM | > 100 µM | > 100 µM |  |  | > 100 µM | > 100 µM |  | > 100 µM | > 100 µM | 
18 | CC1=Cc2cccc(C)c2C(=O)C1=O |  | 4.72 µM | 6.88 µM | 10.7 µM |  |  | 9.87 µM | 11.1 µM | 36.8 µM |  | 37.2 µM | 41 µM | 
19 | O=C1OC(C2Cc3ccc4ccccc4c3C2=O)c2ccccc21 (stereo not given) | > 100 µM | > 100 µM | > 100 µM | > 100 µM | > 100 µM |  | > 100 µM | > 100 µM |  |  | > 100 µM | > 100 µM | > 100 µM
20 | Cc1ccc(/C=N\NC2c3cc(Cl)ccc3Nc3nc(=O)[nH]c(C)c32)cc1 (stereo not given) | > 100 µM | > 100 µM | > 100 µM | > 100 µM | > 100 µM |  | > 100 µM | > 100 µM | > 100 µM |  | > 100 µM | > 100 µM | 
21 | COC(=O)/C(=C/c1ccc(OC)cc1)C(C(=O)O)=C1CCCC1 | > 100 µM | > 100 µM | > 100 µM | > 100 µM | > 100 µM |  | > 100 µM | > 100 µM | > 100 µM |  | > 100 µM | > 100 µM | 
22 | COc1ccc(-c2nc(SCC(=O)NNC(=S)Nc3ccccc3)[nH]c2-c2ccc(OC)cc2)cc1 | > 100 µM | 44.1 µM | 78 µM | 30.6 µM |  |  | 42.4 µM | 39.8 µM | > 100 µM |  | 50.8 µM | 32 µM | 73.7 µM
